Experimental data from US20190247449A1, “COMPOSITIONS COMPRISING A NON-PATHOGENIC BACTERIA AND METHODS FOR […] AND ANIMAL HOSTS FROM FUNGAL, BACTERIAL AND VIRAL DISEASES” (priority 2016, published 2019).

Key:
Assay type in all cases: cell-based
RAW 264.7 macrophages = test: Cell viability, Alamar Blue assay; details: % of untreated control cells
Protocol: (§1) RAW 264.7 macrophages were grown in flat-bottomed flasks using a standard growth medium (DMEM supplemented with 5% FBS, antibiotics and glutamine. The cells were maintained in accordance with standard procedures well known in the art. After the cells reached confluence, they were removed from the flasks using mechanical means and then concentrated by centrifuging and resuspended in a small volume of fresh culture medium. The cell concentration was adjusted with growth medium in order that about 75,000 cells could be added to each well of a 96-well plate. A combination of 25 µg/mL LPS and 10 U/ml IFN-γ DMEM, was used for activation of the macrophages. The various test agents were added to the wells one hour prior to activation. The cells were then incubated for a further 24 hours, prior to assaying the inflammatory mediator production and cell viability.
The Alamar Blue assay of viability was performed by adding 100 μL of a 10% Alamar Blue solution to each well and incubating at 37° C. for 1-2 hr. Fluorescence was measured (excitation at 545 nm and emission at 595 nm) and expressed as a percentage of the values in untreated control cells.

TNF-α production = test: TNF-α determination by ELISA in activated macrophages; details: RAW 264.7 macrophages activated with LPS and IFN-γ, agents added one hour before, 24 hours
Protocol: as §1
A sandwich ELISA was used to determine TNF-α concentration. The primary antibody was used at a concentration of […] in PBS. Serial dilutions of TNF-α standard from 0 to 1000 pg/mL in diluent (0.05% Tween-20, 0.1% BSA in PBS) were used as internal standard. TNF-α was detected with a biotinylated second antibody and an avidin peroxidase conjugate with TMB as detection reagent. The color development was monitored at 655 nm, taking readings after every 5 minutes. After 25 minutes, the reaction was stopped using 0.5 M sulphuric acid and the absorbance was measured at 450 nm.

NO production = test: Nitric oxide production by Griess assay in activated macrophages
Protocol: as §1
The production of NO by the macrophages subjected to the various treatments was assayed using the Griess reagent (equal volumes of 1% sulphanilamide and 0.1% napthyethylene-diamine in 5% HCl). 70 μL of supernatant from each test well was transferred to a fresh 96-well plate and mixed with 70 μL of Griess reagent and the violet color produced was measured at 540 nm.

[1] = at the IC50 for inhibition of NO
[2] = at the IC50 for inhibition of TNF-α

Compound | Cell viability (% of cell survival) (RAW 264.7 macrophages; [1]) | Cell viability (% of cell survival) (RAW 264.7 macrophages; [2]) | IC50 for the inhibition of TNF-α production (TNF-α production) [mg/mL] | IC50 for the inhibition of NO production (NO production; RAW 264.7 macrophages activated with LPS and IFN-γ, agents added one hour before, 24 hours) [mg/mL] | IC50 (NO production; Mus musculus, RAW264.7, read-out: IC50 for the inhibition of NO production) [µg/mL] | IC50 (TNF-α production; Mus musculus, RAW264.7, read-out: IC50 for the inhibition of TNF-α production) [µg/mL]
Steviol glycoside | 98.20 ± 4.2 % of cell survival | 99.54 ± 4.1 % of cell survival | 0.08 | – | – | –
Naringin | 90.10 ± 4.2 % of cell survival | 91.50 ± 5.2 % of cell survival | 0.09 | 0.04 | – | –
C=C[C@](C)(O)CC[C@@H]1[C@@]2(C)CCCC(C)(C)[C@@H]2CC[C@@]1(C)O [Sclareol] | 96.20 ± 2.1 % of cell survival | 95.30 ± 2.2 % of cell survival | – | – | 40 | 80
